Patent publication US9175003B2, “Substituted azoanthracene derivatives and intermediates for preparation thereof” (TransTech Pharma, LLC, priority 2009, dated 2015)

target: human GLP-1 receptor (Homo sapiens (Human), UniProt P43220); conditions: read-out: Mean EC50; cAMP, HTRF detection, 30 min at 37° C., HEK-293 cells expressing cloned human GLP-1 receptor
Sequence (P43220 24-463): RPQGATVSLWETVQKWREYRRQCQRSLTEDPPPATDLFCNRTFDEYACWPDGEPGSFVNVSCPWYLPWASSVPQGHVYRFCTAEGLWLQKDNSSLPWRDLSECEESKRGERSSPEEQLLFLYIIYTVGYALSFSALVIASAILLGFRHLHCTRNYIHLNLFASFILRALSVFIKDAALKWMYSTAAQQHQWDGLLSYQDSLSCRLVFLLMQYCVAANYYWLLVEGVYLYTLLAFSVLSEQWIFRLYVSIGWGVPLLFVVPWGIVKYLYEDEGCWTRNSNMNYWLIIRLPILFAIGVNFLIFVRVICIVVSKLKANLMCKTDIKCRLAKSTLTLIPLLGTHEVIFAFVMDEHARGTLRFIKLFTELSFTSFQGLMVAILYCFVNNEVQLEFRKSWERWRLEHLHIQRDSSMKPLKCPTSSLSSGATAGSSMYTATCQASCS
Experimental: Following overnight incubation of cells, media was removed, and compounds (at concentrations ranging from 0.0001 to 100 μM) were added to monolayer cells in Iscove's modified dulbecco's medium (IMDM), 100 μM RO 20-1724 PDE inhibitor, 0.1% BSA, 2% DMSO in a final volume of 100 μL, and incubated for 30 min at 37° C. […] Alternatively, cells were harvested and combined with compounds in suspension using the buffer and protocol described above. cAMP was quantified using a homogenous time-resolved fluorescence detection system (cAMP dynamic, CIS bio International).

Compound	EC50 [nM]
Cc1nc(N)sc1S(=O)(=O)N1Cc2cc3c(cc2C[C@H]1C(=O)N[C@@H](Cc1ccc(-c2ccnc(C)c2C)cc1)C(=O)O)OC[C@H](c1ccc(OCc2ccc(Cl)c(Cl)c2)cc1)O3 [Example 411, (S)-2-({(3S,8S)-7-(2-Amino-4-methyl-thiazole-5-sulfonyl)-3-[4-(3,4-dichloro-benzyloxy)-phenyl]-2,3,6,7,8,9-hexahydro-[1,4]dioxino[2,3-g]isoquinoline-8-carbonyl}-amino)-3-[4-(2,3-dimethyl-pyridin-4-yl)-phenyl]-propionic acid]	9
Cc1nccc(-c2ccc(C[C@H](NC(=O)[C@@H]3Cc4cc5c(cc4CN3C(=O)N[C@H](C)c3ccccc3)O[C@@H](c3cccc(OCc4ccc(Cl)c(Cl)c4)c3)CO5)C(=O)O)cc2)c1C [Example 414, (S)-2-{[(3S,8S)-3-[3-(3,4-Dichloro-benzyloxy)-phenyl]-7-((R)-1-phenylethylcarbamoyl)-2,3,6,7,8,9-hexahydro-[1,4]dioxino[2,3-g]isoquinoline-8-carbonyl]-amino}-3-[4-(2,3-dimethyl-pyridin-4-yl)-phenyl]-propionic acid]	191
Cc1nc(C(=O)N2Cc3cc4c(cc3C[C@H]2C(=O)N[C@@H](Cc2ccc(-c3ccnc(C)c3C)cc2)C(=O)O)OC[C@H](c2cccc(OCc3ccc(Cl)c(Cl)c3)c2)O4)c(C)o1 [Example 415, (S)-2-{[(3S,8S)-3-[3-(3,4-Dichloro-benzyloxy)-phenyl]-7-(2,5-dimethyl-oxazole-4-carbonyl)-2,3,6,7,8,9-hexahydro-[1,4]dioxino[2,3-g]isoquinoline-8-carbonyl]-amino}-3-[4-(2,3-dimethyl-pyridin-4-yl)-phenyl]-propionic acid]	75
CC[C@@H](c1ccccc1)N1Cc2cc3c(cc2C[C@H]1C(=O)N[C@@H](Cc1ccc(-c2ccnc(C)c2C)cc1)C(=O)O)OC[C@H](c1cccc(OCc2ccc(Cl)c(Cl)c2)c1)O3 [Example 419, (S)-2-{[(3S,8S)-3-[3-(3,4-Dichloro-benzyloxy)-phenyl]-7-((S)-1-phenyl-propyl)-2,3,6,7,8,9-hexahydro-[1,4]dioxino[2,3-g]isoquinoline-8-carbonyl]-amino}-3-[4-(2,3-dimethyl-pyridin-4-yl)-phenyl]-propionic acid]	90
CC[C@@H](c1ccccc1)N1Cc2cc3c(cc2C[C@H]1C(=O)N[C@@H](Cc1ccc(Oc2ccnc(C)c2C)cc1)C(=O)O)OC[C@H](c1cccc(OCc2ccc(Cl)c(Cl)c2)c1)O3 [Example 422, (S)-2-{[(3S,8S)-3-[3-(3,4-Dichloro-benzyloxy)-phenyl]-7-((S)-1-phenyl-propyl)-2,3,6,7,8,9-hexahydro-[1,4]dioxino[2,3-g]isoquinoline-8-carbonyl]-amino}-3-[4-(2,3-dimethyl-pyridin-4-yloxy)-phenyl]-propionic acid]	8
CC[C@@H](c1ccccc1)N1Cc2cc3c(cc2C[C@H]1C(=O)N[C@@H](Cc1ccc(-c2ccnc(C)c2C)cc1)C(=O)O)OC[C@H](c1ccc(Oc2ccccc2)cc1)O3 [Example 424, (S)-3-[4-(2,3-Dimethyl-pyridin-4-yl)-phenyl]-2-{[(3S,8S)-3-(4-phenoxy-phenyl)-7-((S)-1-phenyl-propyl)-2,3,6,7,8,9-hexahydro-[1,4]dioxino[2,3-g]isoquinoline-8-carbonyl]-amino}-propionic acid]	203
Cc1nccc(-c2ccc(C[C@H](NC(=O)[C@@H]3Cc4cc5c(cc4CN3C(=O)OC(C)(C)C)O[C@H](c3ccc(OCc4ccc(Cl)c(Cl)c4)cc3)CO5)C(=O)O)cc2)c1C [Example 427, (3R,8S)-8-{(S)-1-Carboxy-2-[4-(2,3-dimethyl-pyridin-4-yl)-phenyl]-ethylcarbamoyl}-3-[4-(3,4-dichloro-benzyloxy)-phenyl]-2,3,8,9-tetrahydro-6H-[1,4]dioxino[2,3-g]isoquinoline-7-carboxylic acid tert-butyl ester]	84
Cc1nc(C(=O)N2Cc3cc4c(cc3C[C@H]2C(=O)N[C@@H](Cc2ccc(-c3ccnc(C)c3C)cc2)C(=O)O)OC[C@@H](c2ccc(OCc3ccc(Cl)c(Cl)c3)cc2)O4)c(C)o1 [Example 428, (S)-2-{[(3R,8S)-3-[4-(3,4-Dichloro-benzyloxy)-phenyl]-7-(2,5-dimethyl-oxazole-4-carbonyl)-2,3,6,7,8,9-hexahydro-[1,4]dioxino[2,3-g]isoquinoline-8-carbonyl]-amino}-3-[4-(2,3-dimethyl-pyridin-4-yl)-phenyl]-propionic acid]	22
Cc1nccc(-c2ccc(C[C@H](NC(=O)[C@@H]3Cc4cc5c(cc4CN3C(=O)N[C@H](C)c3ccccc3)O[C@H](c3ccc(OCc4ccc(Cl)c(Cl)c4)cc3)CO5)C(=O)O)cc2)c1C [Example 429, (S)-2-{[(3R,8S)-3-[4-(3,4-Dichloro-benzyloxy)-phenyl]-7-((R)-1-phenyl-ethylcarbamoyl)-2,3,6,7,8,9-hexahydro-[1,4]dioxino[2,3-g]isoquinoline-8-carbonyl]-amino}-3-[4-(2,3-dimethyl-pyridin-4-yl)-phenyl]-propionic acid]	32
CC[C@@H](c1ccccc1)N1Cc2cc3c(cc2C[C@H]1C(=O)N[C@@H](Cc1ccc(-c2ccnc(C)c2C)cc1)C(=O)O)OC[C@@H](c1ccc(OCc2ccc(Cl)c(Cl)c2)cc1)O3 [Example 430, (S)-2-{[(3R,8S)-3-[4-(3,4-Dichloro-benzyloxy)-phenyl]-7-((S)-1-phenyl-propyl)-2,3,6,7,8,9-hexahydro-[1,4]dioxino[2,3-g]isoquinoline-8-carbonyl]-amino}-3-[4-(2,3-dimethyl-pyridin-4-yl)-phenyl]-propionic acid]	12
Cc1nc(C(=O)N2Cc3cc4c(cc3C[C@H]2C(=O)N[C@@H](Cc2ccc(-c3ccnc(C)c3C)cc2)C(=O)O)OC[C@H](c2ccc(OCc3ccc(Cl)c(Cl)c3)cc2)O4)co1 [Example 431, (S)-2-{[(3S,8S)-3-[4-(3,4-Dichloro-benzyloxy)-phenyl]-7-(2-methyl-oxazole-4-carbonyl)-2,3,6,7,8,9-hexahydro-[1,4]dioxino[2,3-g]isoquinoline-8-carbonyl]-amino}-3-[4-(2,3-dimethyl-pyridin-4-yl)-phenyl]-propionic acid]	31
Cc1nc(C)c(C(=O)N2Cc3cc4c(cc3C[C@H]2C(=O)N[C@@H](Cc2ccc(-c3ccnc(C)c3C)cc2)C(=O)O)OC[C@H](c2ccc(OCc3ccc(Cl)c(Cl)c3)cc2)O4)o1 [Example 432, (S)-2-{[(3S,8S)-3-[4-(3,4-Dichloro-benzyloxy)-phenyl]-7-(2,4-dimethyl-oxazole-5-carbonyl)-2,3,6,7,8,9-hexahydro-[1,4]dioxino[2,3-g]isoquinoline-8-carbonyl]-amino}-3-[4-(2,3-dimethyl-pyridin-4-yl)-phenyl]-propionic acid]	21
Cc1nccc(Oc2ccc(C[C@H](NC(=O)[C@@H]3Cc4cc5c(cc4CN3S(=O)(=O)C(C)C)O[C@@H](c3ccc(OCc4ccc(Cl)c(Cl)c4)cc3)CO5)C(=O)O)cc2)c1C [Example 436, (S)-2-{[(3S,8S)-3-[4-(3,4-Dichloro-benzyloxy)-phenyl]-7-(propane-2-sulfonyl)-2,3,6,7,8,9-hexahydro-[1,4]dioxino[2,3-g]isoquinoline-8-carbonyl]-amino}-3-[4-(2,3-dimethyl-pyridin-4-yloxy)-phenyl]-propionic acid]	320
Cc1nccc(-c2ccc(C[C@H](NC(=O)[C@@H]3Cc4cc5c(cc4CN3C(=O)NC3(C)CCCCC3)O[C@@H](c3ccc(OCc4ccc(Cl)c(Cl)c4)cc3)CO5)C(=O)O)cc2)c1C [Example 438, (S)-2-{[(3S,8S)-3-[4-(3,4-Dichloro-benzyloxy)-phenyl]-7-(1-methyl-cyclohexylcarbamoyl)-2,3,6,7,8,9-hexahydro-[1,4]dioxino[2,3-g]isoquinoline-8-carbonyl]-amino}-3-[4-(2,3-dimethyl-pyridin-4-yl)phenyl]-propionic acid]	37
Cc1nc(C(=O)N2Cc3cc4c(cc3C[C@H]2C(=O)N[C@@H](Cc2ccc(-c3ccc(F)cc3)cc2)C(=O)O)OC[C@H](c2ccc(OCc3ccc(Cl)c(Cl)c3)cc2)O4)c(C)o1 [Example 440, (S)-2-{[(3S,8S)-3-[4-(3,4-Dichloro-benzyloxy)-phenyl]-7-(2,5-dimethyl-oxazole-4-carbonyl)-2,3,6,7,8,9-hexahydro-[1,4]dioxino[2,3-g]isoquinoline-8-carbonyl]-amino}-3-(4′-fluoro-biphenyl-4-yl)-propionic acid]	387
Cc1nccc(-c2ccc(C[C@H](NC(=O)[C@@H]3Cc4cc5c(cc4CN3C(=O)c3ccccc3)O[C@@H](c3ccc(OCC4CCCCC4)cc3)CO5)C(=O)O)cc2)c1C [Example 442, (S)-2-{[(3S,8S)-7-Benzoyl-3-(4-cyclohexylmethoxy-phenyl)-2,3,6,7,8,9-hexahydro-[1,4]dioxino[2,3-g]isoquinoline-8-carbonyl]-amino}-3-[4-(2,3-dimethyl-pyridin-4-yl)-phenyl]-propionic acid]	208
